Data set [1] relates to GSK-3α (Tyr276) / GSK-3β (Tyr216). As to the kind of experiment: Tyrosine phosphorylation of GSK-3 in SH-SY5Y cells (Western blot). The class given is cell-based, human. Conditions: 1 μM, 12 hr. The source says:
GSK-3α and GSK-3β activity is enhanced by the phosphorylation of a specific tyrosine residue (Tyr276 and Tyr216, respectively) (Hughes et al. (1993) EMBO J. 12: 803-808; Dajani et al. (2003) EMBO J. 22: 494-501). The tyrosine kinase responsible for this phosphorylation in mammals is unknown, but there is some evidence that it indirectly depends on GSK-3 activity (Bhat et al. (2000) Proc. Natl. Acad. Sci. U.S.A. 97: 11074-11079; Shaw et al. (1997) FEBS Lett. 416: 307-311). […] SH-SY5Y cells were exposed to IO, MeIO, BIO and MeBIO for 12 hr and the phosphorylation of Tyr276 (GSK-3α) and Tyr216 (GSK-3β) was estimated by Western blotting with phospho-specific antibodies. […] This was accompanied by an increased level in total GSK-3β, total β-catenin, and dephospho-&catenin.

The test system of data set [2] is 5L (AhR +/+) hepatoma cells. The data set is described as follows: FACS cell cycle analysis, 5L cells. Format: cell-based, mouse. Conditions: 10 μM indirubins or 100 nM TCDD, 24 hr.
In data set [3] the test system is 5L (AhR +/+) hepatoma cells. The data set is described as follows: Cell proliferation by direct counting, 5L cells. The class given is cell-based, mouse. Conditions: 20 μM, 24 and 48 hr. The procedure:
(§1) The protocol followed was similar to those previously described in Weiss C, Kolluri S K, Kiefer F and Göttlicher M. (1996). Exp. Cell Res., 226, 154-163, and Kolluri S K, Weiss C, Koff A and Gbttlicher M. (1999). Genes & Dev., 13, 1742-1753. The mouse 5L hepatoma cell line (AhR +/+) and BP8 (an AhR −/− subclone) were kindly provided by Dr. M. Gottlicher (Forschungszentrun Karlsruhe, Institute of Genetics, 76021 Karlsruhe, Germany). Cells were cultured in Dulbecco's modified Eagle medium (DMEM) (Biowhittaker) supplemented with 2 mM L-glutamine (Eurobio), 10% fetal calf serum (FCS), and gentamycin (Gibco BRL) at 37° C. in an atmosphere of 7% CO2. […] Control experiments were carried out using appropriate dilutions of DMSO.
(§2) The effects of IO and MeOO (20 μM) on the proliferation rate of 5L and BP8 cell lines was determined by counting directly the number of live cells after 24 and 48 hr of exposure to the indirubins (FIG. 17).

Data set [4] has as its system 5L (AhR +/+) hepatoma cells. The data set is described as follows: Cell viability MTT assay, 5L cells. The class given is cell-based, mouse. Conditions: range of concentrations, 24 and 48 hr. A general note: Tetrazolium dyes change colour on reduction, which living cells bring about.
The test system of data set [5] is BP8 (AhR −/−) hepatoma cells. The data set is described as follows: Cell proliferation by direct counting, BP8 cells. Format: cell-based, mouse. Conditions: 20 μM, 24 and 48 hr. The procedure:
as §1, §2

The test system of data set [6] is p27^KIP1 in 5L (AhR +/+) cells. As to the kind of experiment: p27KIP1 expression by Western blotting, 5L cells. Format: cell-based, mouse. To be noted: 10 μM indirubins or 0.1 μM TCDD, 24 hr. (In general: In western blotting, separated proteins are transferred to a membrane and probed.)
The test system of data set [7] is BP8 (AhR −/−) hepatoma cells. As to the kind of experiment: FACS cell cycle analysis, BP8 cells. Conditions: 10 μM indirubins or 100 nM TCDD, 24 hr. Format: cell-based, mouse. The procedure:
Flow cytometry analysis (Coulter EPIX XL2, Beckman, Calif., USA) of cellular DNA content was performed on ethanol-fixed cell suspensions after ribonuclease A III treatment (Sigma) and propidium iodide (Sigma) staining, as previously described (French et al. (1985) Cytometry 6: 47-53). Percentages of cells in G0/G1, S and G2/M phases of cell cycle were then calculated on the basis of DNA distribution histograms provided by the software manufacturer.
Both 5L and BP8 cell lines were treated with 10 μM IO, MeIO, BIO, MeBIO or 100 nM TCDD for 24 hr.

The target in data set [8] is AhR (Homo sapiens, UniProt P35869).
AhR (Homo sapiens, UniProt P35869), sequence (P35869 11-848): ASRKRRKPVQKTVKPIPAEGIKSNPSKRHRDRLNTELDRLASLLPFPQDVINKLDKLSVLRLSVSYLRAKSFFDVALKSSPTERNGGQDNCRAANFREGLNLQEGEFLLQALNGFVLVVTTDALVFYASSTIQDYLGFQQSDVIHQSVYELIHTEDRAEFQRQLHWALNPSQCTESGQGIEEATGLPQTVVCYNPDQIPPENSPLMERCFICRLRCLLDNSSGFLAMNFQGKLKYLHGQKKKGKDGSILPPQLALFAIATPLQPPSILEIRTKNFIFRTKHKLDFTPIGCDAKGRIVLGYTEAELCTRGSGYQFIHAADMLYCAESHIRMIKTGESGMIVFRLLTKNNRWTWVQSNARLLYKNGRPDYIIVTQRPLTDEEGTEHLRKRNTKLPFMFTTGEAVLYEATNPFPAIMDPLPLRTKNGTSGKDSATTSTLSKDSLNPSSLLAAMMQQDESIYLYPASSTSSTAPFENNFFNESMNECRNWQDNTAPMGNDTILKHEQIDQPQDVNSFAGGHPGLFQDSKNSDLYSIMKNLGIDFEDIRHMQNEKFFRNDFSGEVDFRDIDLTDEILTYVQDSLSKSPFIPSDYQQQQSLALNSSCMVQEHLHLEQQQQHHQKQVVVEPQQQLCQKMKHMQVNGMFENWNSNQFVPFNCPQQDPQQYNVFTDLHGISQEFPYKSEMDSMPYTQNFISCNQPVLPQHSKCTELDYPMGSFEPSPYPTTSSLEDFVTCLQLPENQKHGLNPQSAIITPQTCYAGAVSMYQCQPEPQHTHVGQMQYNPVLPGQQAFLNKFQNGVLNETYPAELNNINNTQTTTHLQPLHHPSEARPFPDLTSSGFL
AhR (Homo sapiens, UniProt P35869), sequence (P27540 whole entry partner): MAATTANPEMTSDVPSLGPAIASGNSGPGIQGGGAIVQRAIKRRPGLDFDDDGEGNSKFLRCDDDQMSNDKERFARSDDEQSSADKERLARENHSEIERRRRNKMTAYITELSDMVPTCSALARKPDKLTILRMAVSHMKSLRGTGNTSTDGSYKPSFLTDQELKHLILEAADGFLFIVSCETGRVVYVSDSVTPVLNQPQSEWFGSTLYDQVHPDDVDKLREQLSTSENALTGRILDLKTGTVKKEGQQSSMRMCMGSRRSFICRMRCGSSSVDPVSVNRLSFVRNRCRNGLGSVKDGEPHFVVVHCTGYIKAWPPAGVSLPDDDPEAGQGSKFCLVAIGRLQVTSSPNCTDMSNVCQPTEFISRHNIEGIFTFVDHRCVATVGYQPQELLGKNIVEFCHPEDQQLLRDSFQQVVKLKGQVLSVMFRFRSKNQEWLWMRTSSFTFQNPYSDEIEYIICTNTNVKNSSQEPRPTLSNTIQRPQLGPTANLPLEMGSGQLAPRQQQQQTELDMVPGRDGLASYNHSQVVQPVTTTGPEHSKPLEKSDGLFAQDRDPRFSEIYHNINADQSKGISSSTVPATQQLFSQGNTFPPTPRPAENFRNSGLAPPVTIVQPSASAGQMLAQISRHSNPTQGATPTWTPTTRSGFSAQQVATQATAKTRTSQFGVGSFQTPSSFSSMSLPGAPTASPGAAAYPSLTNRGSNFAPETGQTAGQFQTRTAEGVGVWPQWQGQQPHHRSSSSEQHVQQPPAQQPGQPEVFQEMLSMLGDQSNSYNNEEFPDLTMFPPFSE
In data set [9] the target is T1, AhR (Mus musculus, UniProt P30561).
T1 sequence (P30561 1-848): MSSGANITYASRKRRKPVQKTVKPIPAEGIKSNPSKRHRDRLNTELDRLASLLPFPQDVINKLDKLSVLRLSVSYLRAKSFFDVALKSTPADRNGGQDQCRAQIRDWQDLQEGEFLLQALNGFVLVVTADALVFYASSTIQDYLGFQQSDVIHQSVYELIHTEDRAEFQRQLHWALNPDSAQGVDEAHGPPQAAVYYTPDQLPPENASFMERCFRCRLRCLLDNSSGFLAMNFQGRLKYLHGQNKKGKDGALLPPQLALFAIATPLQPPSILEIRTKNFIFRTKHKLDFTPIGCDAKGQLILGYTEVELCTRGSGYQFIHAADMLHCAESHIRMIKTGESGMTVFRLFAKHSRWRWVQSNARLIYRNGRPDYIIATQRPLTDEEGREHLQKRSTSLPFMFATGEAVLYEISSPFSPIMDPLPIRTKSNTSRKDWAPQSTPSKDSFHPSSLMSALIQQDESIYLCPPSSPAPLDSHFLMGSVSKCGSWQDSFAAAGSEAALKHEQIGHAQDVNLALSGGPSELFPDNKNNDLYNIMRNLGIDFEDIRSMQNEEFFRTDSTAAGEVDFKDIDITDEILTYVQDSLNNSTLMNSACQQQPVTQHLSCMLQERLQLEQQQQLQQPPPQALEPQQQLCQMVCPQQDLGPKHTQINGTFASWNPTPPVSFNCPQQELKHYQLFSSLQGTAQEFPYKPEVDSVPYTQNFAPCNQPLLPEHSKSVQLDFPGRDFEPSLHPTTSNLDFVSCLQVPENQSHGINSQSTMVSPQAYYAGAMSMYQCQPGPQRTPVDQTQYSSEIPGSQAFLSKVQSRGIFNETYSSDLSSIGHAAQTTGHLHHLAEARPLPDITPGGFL
To be noted: read-out: EC50 AhR (hepatoma cell line); Table 4; EGFP at 24 hours.

The subject of data set [10] is BP8 (AhR −/−) hepatoma cells. As to the kind of experiment: Cell viability MTT assay, BP8 cells. The class given is cell-based, mouse. To be noted: range of concentrations, 24 and 48 hr.
Data set [11] concerns the target CDK5/p25 (Homo sapiens, UniProt Q00535). As to the kind of experiment: CDK5/p25 kinase assay (histone H1, 15 μM ATP). Format: biochemical, mammalian. To be noted: read-out: IC50 CDK5/p25.
In data set [12] the target is CDK1/cyclin B. The data set is described as follows: CDK1/cyclin B kinase assay (histone H1, 15 μM ATP). Format: biochemical, starfish (Marthasterias glacialis).
Data set [13] deals with GSK-3α/β. The data set is described as follows: GSK-3α/β kinase assay (GS-1 peptide, 15 μM ATP). Format: biochemical, porcine.

Experimental findings from patent publication US20070276025A1, “Indirubin-Type Compounds, Compositions, and Methods for Their Use” (priority 2003, published 2007) are described below.

Read-outs that look alike come from different tables or passages of the source.

What is called EC50 is the concentration at which the effect is half-maximal.

CDK5/p25, sequence (Q00535 whole entry, species assumed): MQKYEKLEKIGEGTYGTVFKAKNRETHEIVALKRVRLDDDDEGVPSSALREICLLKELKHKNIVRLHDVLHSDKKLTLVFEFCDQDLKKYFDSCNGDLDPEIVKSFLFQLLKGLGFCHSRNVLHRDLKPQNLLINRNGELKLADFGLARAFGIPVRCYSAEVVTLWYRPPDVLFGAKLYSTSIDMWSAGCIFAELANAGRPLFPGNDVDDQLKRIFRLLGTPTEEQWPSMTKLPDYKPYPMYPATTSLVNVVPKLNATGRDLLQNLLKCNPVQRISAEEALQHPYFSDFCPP
CDK5/p25, sequence (Q15078 99-307 partner limits assumed, species assumed): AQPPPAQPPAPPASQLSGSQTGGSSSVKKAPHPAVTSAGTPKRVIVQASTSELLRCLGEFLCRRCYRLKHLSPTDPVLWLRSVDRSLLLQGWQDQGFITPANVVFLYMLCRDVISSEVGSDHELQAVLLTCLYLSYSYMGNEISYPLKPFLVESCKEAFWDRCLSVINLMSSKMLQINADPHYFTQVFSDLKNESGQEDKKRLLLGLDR

With `CN1C(=O)C(=C2Nc3ccccc3C2=NO)c2ccccc21` [13d, 1-Methylindirubin-3′-oxime], the “level of tyrosine phosphorylation of both GSK-3 isoforms” value in data set [1] was “None of these changes were observed”. For the same compound, in data set [2], the “accumulation of 5L cells in G1 phase” value is on record as “very striking accumulation”. Also, the “proliferation rate of 5L cells” value in data set [3] is recorded as “reduced the rate of proliferation only in 5L cells”. In addition, the “survival of 5L cells (MTT)” value in data set [4] is reported as “apparently not affected”. In data set [5], the “proliferation rate of BP8 cells” value is “did not effect the proliferation”. Also, the “p27^KIP1 expression in 5L cells” value in [6] is “very effective p27^KIP1 inducers”. Further, the “accumulation of BP8 cells in G1 phase” value in [7] is on record as “but not of AhR −/− cells (BP8)”. For the same compound, the results for the EC50 in data set [8] and in data set [9] were 0.008 µM and 0.129 µM, respectively. In addition, the “survival of BP8 cells (MTT)” value in data set [10] is “apparently not affected”. The IC50 is above 100 µM in data set [11] (Table 1); above 100 µM in [11] (Table 5); 73 µM in [12] (Table 1, read-out: IC50 CDK1/cyclin B); 73 µM in data set [12] (Table 4, read-out: IC50 CDK1/cycin B); 73 µM in data set [12] (Table 5, read-out: IC50 CDK1/cyclin B); above 100 µM in data set [13] (Table 1, read-out: IC50 GSK-3 α/β). The IC50 in [13] (Table 4, read-out: IC50 GSK-3) is above 100 µM; in [13] (Table 5, read-out: IC50 GSK-3α/β), above 100 µM.
